# Source: patent EP0532027B1, “Cyclic nitrones, their preparation and pharmaceutical compositions containing them” (MERRELL PHARMACEUTICALS INC., priority 1991, dated 1993)
# Legend:
# gerbils [1] = conditions: literature (Floyd; Oliver et al; Phillis et al); versus control animals; cited from earlier work
# myocardial tissues = conditions: literature (Bolli et al); cited from earlier work
# [2] = tested on: animal models of circulatory shock; conditions: literature (Hamburger & McCay; Novelli et al.); cited from earlier work
# [3] = Inhibition of oxidation of soy PC liposome initiated with hydrogen peroxide and Fe2+ (thiobarbituric acid readout); type: biochemical; conditions: amount required to inhibit 100% of oxidation of soy liposome over 15 minutes; 50uM H2O2, 50uM Fe2+, 37°C, pH 7.0
# Text: One such assay is based upon the fact that the lipid, soybean phosphatidylcholine, readily undergoes oxidation. This oxidation may be initiated by a variety of oxidizing agents such as Fe^2+ and H2O2, or 2,2'-azobis-(2-amidinopropane). A spin trapping agent will decrease the rate at which the lipid undergoes oxidation in this assay. This assay is described in detail in: a) Nilsson, U.A., Olsson, L-I, Carlin, G. and Bylund-Fellenius, A-C. (1989) Inhibition of lipid peroxidation by spin labels. Relationships between structure and function. J. Biol. Chem. 264:11131-11135; and b) Aust, S.D. (1985). Lipid peroxidation. In Handbook of Methods for Oxygen Radical Research. (Greenwald, R.A., ed.) CRC Press, Inc. Boca Raton, Florida, pp. 203-207.
# Soybean phosphatidylcholine (PC) was obtained from commercial suppliers such as Sigma or Avanti Polar Lipids. The soy PC was dissolved in ethanol achieving a final concentration of 0.563mM. […]
# The ability of a compound to inhibit oxidation of the soy PC liposome was evaluated in the following manner. […]
# The samples were heated at 100°C for 20 minutes, cooled and centrifuged. The absorbance of the resulting supernatant was determined at 532-580nm. Quantitation of the thiobarbituric acid/oxidized PC complex was determined by comparison to a standard curve of malondialdehyde equivalents generated by acid catalysed hydrolysis of 1,1,3,3-tetraethoxypropane. […]
# [4] = Inhibition of oxidation of soy PC liposome by Fe2+/histidine-Fe3+ (thiobarbituric acid readout); type: biochemical; conditions: histidine/Fe3+ 250:50uM, initiated with 50 uM Fe2+; 15 minutes, 37°C
# gerbils [5] = experiment: Gerbil model of stroke (cerebral ischemia/reperfusion); type: in vivo; conditions: for protective effect in gerbil model: 32 mg/kg, Figure V; for locomotor activity of ischemic gerbils: pretreated 30 minutes prior to ischemic event, Figure III
# Text: One of the primary therapeutic uses of pharmaceutical compositions containing these compounds will be in the treatment of stroke. Strokes are associated with cerebral ischemia. Initially, it was thought that the CNS damage that often accompanies a stroke was a direct result of the tissues being deprived of oxygen. Recent research has shown that most of the damage occurs when the tissues are reoxygenated during reperfusion. […] Gastroenterology, 82, 9-15 (1982). Oliver et al has shown that a significant amount of this damage occurs due to free oxygen radicals and the oxidation sequence which they initiate, Proc. Natl. Acad. Sci. USA, vol. 87, pp 5144-5147 July 1990. […] In this model the carotid arteries of gerbils are constricted surgically and after a predetermined period, the constriction is removed so that surrounding tissues may be reperfused. CNS damage, which occurs upon reperfusion, can be measured by the level of protein oxidation that occurs in the brain or by examining the gerbil's behavior. […] Oliver et al and Phillis et al have also shown similar results with PBN, supra and Neuroscience Letter, 116 (1990) 315-319.
# The compound, 3,4-dihydro-3,3-dimethylisoquinoline N-oxide which was the product of Example I (hereinafter compound) was tested in a gerbil model as described above. The exact procedure utilized is described by Chandler et al. in Journal of Pharmacological Methods Vol. 14, pages 137-146 (1985). Figures I-V summarize the results that were obtained.
# Figure I depicts the effect the compound had on the motor activity of non-ischemic gerbils.
# Figure II depicts the effects that ischemia has upon the gerbils locomotor activity.
# The gerbils were pretreated with the compound 30 minutes prior to initiation of the ischemic event.
# Figure IV compares the neuronal loss of ischemic gerbils receiving various doses of compound with both control gerbils and non-ischemic gerbils.
# All compounds were administered at 32 mg/kg. […] Compound A represents the product of Example I, F = Example III, and G = Example II.
# ENDOTOXIN TREATED RATS = experiment: Animal model of septic shock: survival of endotoxin treated rats; type: in vivo, Male Sprague Dawley rats; conditions: 72 hours after endotoxin
# Method: In this test rats were injected with endotoxin and a control survival rate was determined. Other groups of rats were pretreated with one of the compounds of Formula I at varied dosages and then administered endotoxin and the survival rates were compared. This test was conducted in the following manner. Male Sprague Dawley rats were utilized (weight 215g-300g) in each test group. Endotoxin (30mg/kg) was administered intraperitoneally (IP). A test compound or vehicle was administered IP 30 minutes prior to endotoxin administration. The following results were obtained: TABLE III
# [6] = tested on: INTERLEUKIN-1 RELEASE BY HUMAN MACROPHAGES; experiment: Inhibition of interleukin-1 release by endotoxin-stimulated human macrophages (ELISA); type: cell-based; conditions: Macrophage, two million macrophages stimulated with 20 nanograms endotoxin for 24 hours, IL-1 in supernatant
# Text: These include arthritis, psoriasis, athersclerosis, and diabetes. […] One such in-vitro assay is based upon the fact that when human macrophages are exposed to endotoxin, the macrophages secrete IL-1.
# The in-vitro studies of IL-1 production was facilitated by a specific property of macrophages, i. e. attachment to non-self, e.g. plastic surface. In this assay, human peripheral blood monocyte-derived macrophages were enriched by plastic adherence. Two million of these macrophages were stimulated with 20 nanograms of endotoxin for 24 hours. Culture supernatants were then collected and the levels of IL-1 were assayed by enzyme-linked immuno-sorbent assay (ELISA). The same assay was repeated except that it was done in the presence of the test compound. The assay was repeated until an IC50 was calculated.
# Interleukin-1 = experiment: Blood levels of interleukin-1 in endotoxin-treated mice (ELISA); type: in vivo, male Charles-Dawley mice; conditions: mice given endotoxin and test compound, endotoxin alone 58.3, vehicle without endotoxin 29.2
# Method: Normal 7 week old male Charles-Dawley mice were utilized in the assay. The mice were injected with vehicle and a baseline blood level of IL-1 was established by an IL-1 specific ELISA ninety (90) minutes after administration. The animals were then administered both endotoxin and vehicle and a blood level of IL-1 was determined. Finally the animals were administered endotoxin and the test compound and the effect upon IL-1 blood levels was determined.
# [7] = dose 3 mg/kg IP 30 minutes prior to endotoxin (30mg/kg IP)
# [8] = dose 10 mg/kg IP 30 minutes prior to endotoxin (30mg/kg IP)
# [9] = dose 30 mg/kg IP 30 minutes prior to endotoxin (30mg/kg IP)
smiles,measurement,setting,value
"CC(C)(C)[N+]([O-])=Cc1ccccc1 [PBN, α-phenyl N-tert-butyl nitrone]",CNS damage in gerbil model of stroke,gerbils [1],less CNS damage
same,myocardial dysfunction occurring after reperfusion,myocardial tissues,decreases the amount of myocardial dysfunction
same,survival in animal models of circulatory shock,[2],significantly increase survival
"[O-][N+]1=Cc2ccccc2CC12CCCCC2 [Example II, Sprio [cyclohexane-1,3']-3,4-dihydroisoquinoline-N-oxide]",IC100 Required to prevent Oxidation of Soybean Phosphatidylcholne by Fe^+2/H202,[3],0.1 mM
same,IC100 Required to prevent Oxidation of Soybean Phosphatidylcholne by Fe^+2/histidine-Fe^3+,[4],0.3 mM
same,protective effect in gerbil model,gerbils [5],protective effect
same,% Surviving,ENDOTOXIN TREATED RATS; [7],30%
same,Survival Rate,ENDOTOXIN TREATED RATS; [7],3/10
same,% Surviving,ENDOTOXIN TREATED RATS; [8],91%
same,Survival Rate,ENDOTOXIN TREATED RATS; [8],19/23
same,IC50,[6],200 µM
same,IL-1 (picrogram/ml-serum),Interleukin-1,4.7 picrogram/ml-serum
"[O-][N+]1=Cc2ccccc2CC12CCCC2 [Example III, Spiro [cyclopentane-1,3']-[1H]dihydroisoquinoline 2-oxide]",IC100 Required to prevent Oxidation of Soybean Phosphatidylcholne by Fe^+2/H202,[3],0.3 mM
same,IC100 Required to prevent Oxidation of Soybean Phosphatidylcholne by Fe^+2/histidine-Fe^3+,[4],0.7 mM
same,protective effect in gerbil model,gerbils [5],protective effect
same,% Surviving,ENDOTOXIN TREATED RATS; [8],17%
same,Survival Rate,ENDOTOXIN TREATED RATS; [8],2/12
same,% Surviving,ENDOTOXIN TREATED RATS; [9],91%
same,Survival Rate,ENDOTOXIN TREATED RATS; [9],10/11
same,IC50,[6],100 µM
same,IL-1 (picrogram/ml-serum),Interleukin-1,10.2 picrogram/ml-serum
"CC1(C)Cc2ccccc2C=[N+]1[O-] [Example I, 3,4-Dihydro-3,3-dimethylisoquinoline N-oxide]",locomotor activity of ischemic gerbils,gerbils [5]; 30mg/kg,significantly decreased
same,protective effect in gerbil model,gerbils [5],protective effect
same,locomotor activity of ischemic gerbils,gerbils [5]; 100mg/kg,significantly decreased
same,locomotor activity of non-ischemic gerbils,"gerbils [5]; non-ischemic gerbils, Figure I",no effect
same,neuronal loss of ischemic gerbils,"gerbils [5]; various doses, versus control and non-ischemic gerbils, Figure IV",saved significant amounts of neuronal tissue
same,% Surviving,ENDOTOXIN TREATED RATS; [7],33%
same,Survival Rate,ENDOTOXIN TREATED RATS; [7],4/12
same,% Surviving,ENDOTOXIN TREATED RATS; [8],58%
same,Survival Rate,ENDOTOXIN TREATED RATS; [8],7/12
same,% Surviving,ENDOTOXIN TREATED RATS; [9],83%
same,Survival Rate,ENDOTOXIN TREATED RATS; [9],10/12
same,IC50,[6],330 µM
same,IL-1 (picrogram/ml-serum),Interleukin-1,6.4 picrogram/ml-serum
